# Laboratory results published in patent publication US20200222474A1, “COMPOSITIONS AND METHODS FOR INCREASING PHYTOCHEMICAL BIOAVAILABLITY AND BIOACTIVITY” (North Carolina State University, priority 2017, published 2020).
# System: L. acidophilus NCFM
# Assay: RNA-seq transcriptional analysis of L. acidophilus NCFM growing on plant glycosides
# Format: cell-based, Lactobacillus acidophilus
# [1] = LBA1481 D-ribose-binding protein precursor, COG G
# [2] = LBA1482 Ribose ABC transporter, COG G
# [3] = LBA1483 Ribose ABC transporter ATP binding protein, COG G
# [4] = LBA1484 D-ribose pyranase, COG G
# [5] = LBA1494 Lincomycin-resistance protein, COG GEPR
# [6] = LBA1607 Phosphatidylserine decarboxylase precursor, COG I
# [7] = LBA1632 NAD-dependent aldehyde dehydrogenase, COG C
# [8] = LBA1653 Nicotinamide mononucleotide, COG H
# [9] = LBA1684 Putative PTS system IIA component, COG G
# [10] = LBA1689 Maltose-6′-phosphate Oucosidase, COG G
# [11] = LBA1700 Transcriptional regulator-type, COG K
# [12] = LBA1701 Melibiose operon regulatory protein, COG K
# [13] = LBA1705 PTS system IIBC component, COG G
# [14] = LBA1708 Transcriptional antiterminator, COG K
# [15] = LBA1710 Thermostable pullulanase, COG G
# [16] = LBA1812 Alpha-glucosidase II, COG G
# [17] = LBA1870 Maltose phosphorylase, COG G
# [18] = LBA1872 Oligo-1,6-glucosidase, COG G
# [19] = LBA1955 Transcription regulator family protein, COG K
# [20] = gene LBA0046 (Hypothetical protein)
# [21] = gene LBA0149 (Putative nucleotide-binding protein)
# [22] = gene LBA0263 (Hypothetical protein)
smiles,measurement,setting,value
O=c1ccc2cc(O[C@@H]3O[C@H](CO)[C@@H](O)[C@H](O)[C@H]3O)c(O)cc2o1 [Esculin],Transcripts per million (rpm),"LBA1468 Beta-galactosidase small subunit, COG G",38.7 rpm
same,Log2 differential normalized TPM ratio compared to glucose,[1],0.9
same,Log2 differential normalized TPM ratio compared to lactose,[1],0.1
same,Transcripts per million (rpm),[1],9.2 rpm
same,Log2 differential normalized TPM ratio compared to glucose,[2],1
same,Log2 differential normalized TPM ratio compared to lactose,[2],0
same,Transcripts per million (rpm),[2],8.1 rpm
same,Log2 differential normalized TPM ratio compared to glucose,[3],0.4
same,Log2 differential normalized TPM ratio compared to lactose,[3],−0.7
same,Transcripts per million (rpm),[3],4.2 rpm
same,Log2 differential normalized TPM ratio compared to glucose,[4],0.4
same,Log2 differential normalized TPM ratio compared to lactose,[4],−0.3
same,Transcripts per million (rpm),[4],5.3 rpm
same,Log2 differential normalized TPM ratio compared to glucose,"LBA1485 Ribokinase, COG G",−0.3
same,Log2 differential normalized TPM ratio compared to lactose,"LBA1485 Ribokinase, COG G",−1
same,Transcripts per million (rpm),"LBA1485 Ribokinase, COG G",2.7 rpm
same,Log2 differential normalized TPM ratio compared to glucose,[5],3.6
same,Log2 differential normalized TPM ratio compared to lactose,[5],3.6
same,Transcripts per million (rpm),[5],69.4 rpm
same,Log2 differential normalized TPM ratio compared to glucose,[6],1.5
same,Log2 differential normalized TPM ratio compared to lactose,[6],0.5
same,Transcripts per million (rpm),[6],59.5 rpm
same,Log2 differential normalized TPM ratio compared to glucose,[7],3.3
same,Log2 differential normalized TPM ratio compared to lactose,[7],1.5
same,Transcripts per million (rpm),[7],730.5 rpm
same,Log2 differential normalized TPM ratio compared to glucose,[8],2
same,Log2 differential normalized TPM ratio compared to lactose,[8],1.4
same,Transcripts per million (rpm),[8],996.7 rpm
same,Log2 differential normalized TPM ratio compared to glucose,[9],2.9
same,Log2 differential normalized TPM ratio compared to lactose,[9],1
same,Transcripts per million (rpm),[9],98.9 rpm
same,Log2 differential normalized TPM ratio compared to glucose,[10],1.8
same,Log2 differential normalized TPM ratio compared to lactose,[10],0.3
same,Transcripts per million (rpm),[10],12.7 rpm
same,Log2 differential normalized TPM ratio compared to glucose,[11],1.5
same,Log2 differential normalized TPM ratio compared to lactose,[11],1
same,Transcripts per million (rpm),[11],61.9 rpm
same,Log2 differential normalized TPM ratio compared to glucose,[12],4.9
same,Log2 differential normalized TPM ratio compared to lactose,[12],4.1
same,Transcripts per million (rpm),[12],1259.8 rpm
same,Log2 differential normalized TPM ratio compared to glucose,[13],2.2
same,Log2 differential normalized TPM ratio compared to lactose,[13],1.3
same,Transcripts per million (rpm),[13],15.9 rpm
same,Log2 differential normalized TPM ratio compared to glucose,[14],1.4
same,Log2 differential normalized TPM ratio compared to lactose,[14],0
same,Transcripts per million (rpm),[14],1.6 rpm
same,Log2 differential normalized TPM ratio compared to glucose,[15],0.3
same,Log2 differential normalized TPM ratio compared to lactose,[15],−0.1
same,Transcripts per million (rpm),[15],9.6 rpm
same,Log2 differential normalized TPM ratio compared to glucose,"LBA1723 Transposase, COG L",0
same,Log2 differential normalized TPM ratio compared to lactose,"LBA1723 Transposase, COG L",−0.2
same,Transcripts per million (rpm),"LBA1723 Transposase, COG L",55.8 rpm
same,Log2 differential normalized TPM ratio compared to glucose,[16],2.8
same,Log2 differential normalized TPM ratio compared to lactose,[16],0.8
same,Transcripts per million (rpm),[16],120.6 rpm
same,Log2 differential normalized TPM ratio compared to glucose,[17],0
same,Log2 differential normalized TPM ratio compared to lactose,[17],1.2
same,Transcripts per million (rpm),[17],109.2 rpm
same,Log2 differential normalized TPM ratio compared to glucose,"LBA1871 Neopullulanase, COG G",2.1
same,Log2 differential normalized TPM ratio compared to lactose,"LBA1871 Neopullulanase, COG G",1.4
same,Transcripts per million (rpm),"LBA1871 Neopullulanase, COG G",12.2 rpm
same,Log2 differential normalized TPM ratio compared to glucose,[18],1
same,Log2 differential normalized TPM ratio compared to lactose,[18],0.6
same,Transcripts per million (rpm),[18],6.3 rpm
same,Log2 differential normalized TPM ratio compared to glucose,"LBA1873 Acetate kinase, COG C",0.8
same,Log2 differential normalized TPM ratio compared to lactose,"LBA1873 Acetate kinase, COG C",−0.5
same,Transcripts per million (rpm),"LBA1873 Acetate kinase, COG C",6.4 rpm
same,Log2 differential normalized TPM ratio compared to glucose,"LBA1878 Glycerol kinase, COG C",2.1
same,Log2 differential normalized TPM ratio compared to lactose,"LBA1878 Glycerol kinase, COG C",2
same,Transcripts per million (rpm),"LBA1878 Glycerol kinase, COG C",38 rpm
same,Log2 differential normalized TPM ratio compared to glucose,[19],−1.3
same,Log2 differential normalized TPM ratio compared to lactose,[19],−0.9
same,Transcripts per million (rpm),[19],218.2 rpm
same,number of up-regulated genes,"RNA-seq, compared to glucose",87 genes
same,number of uniquely induced genes,"RNA-seq, up-regulated genes not shared with the other PGs",35
same,Log2 differential normalized TPM ratio compared to glucose,[20],2.2
same,Log2 differential normalized TPM ratio compared to lactose,[20],1.5
same,Transcripts per million (rpm),[20],1439.6 rpm
same,Log2 differential normalized TPM ratio compared to glucose,[21],1.4
same,Log2 differential normalized TPM ratio compared to lactose,[21],0.6
same,Transcripts per million (rpm),[21],1325.7 rpm
same,Log2 differential normalized TPM ratio compared to glucose,[22],1.8
same,Log2 differential normalized TPM ratio compared to lactose,[22],1.1
same,Transcripts per million (rpm),[22],59.9 rpm
